The values that follow come from PMC12261219, “Comparative Evaluation of Thiol- and Amine-Conjugating Moieties for Endogenous Albumin Binding after Intravenous Administration” (ACS Pharmacology & Translational Science, 2025).

One series has as its target T1, albumin (Homo sapiens, UniProt P02768).
T1 construct: purchased Sigma-Aldrich A8763
Also noted: method as in Barbas et al. The note with it: equimolar DFSA/albumin ratios; ref Barbas et al.; cited from earlier work.

The nature of series [1]: Stability of oxaliplatin in PB at pH 7.4 (HPLC). The note with it: pH 7.4, 20 °C. It counts as physicochemical. The procedure: The samples were incubated at 20 °C and measured over 25 h. […] RP-HPLC runs were performed using a Waters Acquity UPLC HSS T3 column (100 Å, 1.8 μm, 3.0 mm × 50 mm) on a Dionex Thermo Scientific UltiMate 3000 HPLC system, equipped with a HPG-3400RS binary pump and a DAD-3000RS UV–vis detector. Chromatograms were evaluated at a wavelength of 230 nm. Milli-Q water (mobile phase A) and acetonitrile (mobile phase B), both containing 0.1% TFA, were used as eluents. The flow rate was consistent at 0.6 mL/min for all measurements using the following gradient: 0–0.5 min A 99:1 B, 0.5–5.5 min linear gradient to A 1:99 B, 5.5–6.5 min A 1:99 B, 6.5–9.2 min A 99:1 B.

On the set-up of series [2]: method as in Schueffl et al. To be noted: oxaliplatin data used from earlier paper, ref Schueffl et al., cited from earlier work.
The next series has as its system CT26 colon cancer cells. Also noted: method as in Schueffl et al. The note with it: already described in earlier studies; ref Schueffl et al.; cited from earlier work.
Setting [3] is: serum platinum, i.v. 9 mg/kg oxaliplatin.

Molecules are shown by their SMILES.

T1 sequence (P02768 25-609): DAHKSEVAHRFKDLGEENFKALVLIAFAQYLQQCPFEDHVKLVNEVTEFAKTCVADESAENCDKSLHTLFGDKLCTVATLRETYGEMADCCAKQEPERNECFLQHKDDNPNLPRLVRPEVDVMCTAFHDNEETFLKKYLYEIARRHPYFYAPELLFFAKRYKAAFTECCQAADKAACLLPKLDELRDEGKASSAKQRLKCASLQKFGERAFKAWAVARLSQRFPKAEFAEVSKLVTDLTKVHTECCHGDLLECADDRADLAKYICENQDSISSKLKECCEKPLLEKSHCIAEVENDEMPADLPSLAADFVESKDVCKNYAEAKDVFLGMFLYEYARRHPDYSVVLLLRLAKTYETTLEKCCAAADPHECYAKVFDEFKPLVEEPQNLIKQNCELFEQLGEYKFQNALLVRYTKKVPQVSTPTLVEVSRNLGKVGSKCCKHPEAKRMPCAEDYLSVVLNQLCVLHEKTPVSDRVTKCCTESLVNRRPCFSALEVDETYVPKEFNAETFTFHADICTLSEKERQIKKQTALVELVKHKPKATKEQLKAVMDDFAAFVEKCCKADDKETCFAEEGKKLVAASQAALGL

Turning to `O=C(O)C1=CCCCC1S(=O)(=O)Nc1ccc(F)cc1F` (stereo not shown) [DFSA, 6-(N-(2,4-difluorophenyl)-sulfamoyl)-cyclohex-1-ene-1-carboxylic acid], the “Albumin binding after 24 h” value on albumin was “less than 25%”.

With `O=C1[O][Pt]2([NH][C@@H]3CCCC[C@H]3[NH]2)[O]C1=O` [oxaliplatin], the “Hydrolysis after 25 h” value in series [1] is on record as about 15%. For the same compound, in series [2] (setting [3]), the AUCPt_0-24 was 26.6 mg·h/kg and the “AUCPt_0-∞” value was 37.5 mg·h/kg. Moreover, the Cmax in series [2] (serum platinum, tmax=0.08 h) is reported as 6.17 mg/kg. In addition, the Half-life in series [2] (terminal half-life) was 14.3 h. In addition, the Vz in series [2] (terminal phase) is recorded as 2.42 kg/kg. Also, the “Percentage of AUCPt_0-∞ extrapolated from tlast to infinity” value in series [2] (tlast=24 h) is 29.0%. The CL in series [2] (total body clearance) is listed as 0.118 kg/h/kg. In addition, the “Effect on overall survival in the CT26 model” value in the series on CT26 colon cancer cells is recorded as “does not lead to prolonged overall survival”.
